Results reported in PubChem BioAssay (NCI).
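Protocol summary: plate cells (96-well), add compound at 5 concentrations, incubate 48 h, interpolate endpoints linearly. GI50 marks 50% less growth. TGI marks complete inhibition of growth.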 Where a SMILES comes first, the peptide text is derived from it. The star is where a group is joined. Boc = CC(C)(C)OC(=O)*

Assays:
Assay in all cases: growth of human tumour cells (NCI), 48 h
PC-3 prostate = tested on: PC-3 prostate
A498 renal = tested on: A498 renal
HS 578T breast = tested on: HS 578T breast
LOX IMVI melanoma = tested on: LOX IMVI melanoma
NCI-H23 lung = tested on: NCI-H23 lung
IGROV1 ovarian = tested on: IGROV1 ovarian
MCF7 breast = tested on: MCF7 breast
OVCAR-3 ovarian = tested on: OVCAR-3 ovarian
K-562 leukemia = tested on: K-562 leukemia
SNB-19 CNS = tested on: SNB-19 CNS

| Compound | TGI (PC-3 prostate) [µM] | TGI (A498 renal) [µM] | TGI (HS 578T breast) [µM] | TGI (LOX IMVI melanoma) [µM] | TGI (NCI-H23 lung) [µM] | TGI (IGROV1 ovarian) [µM] | TGI (MCF7 breast) [µM] | TGI (OVCAR-3 ovarian) [µM] | TGI (K-562 leukemia) [µM] | TGI (SNB-19 CNS) [µM] | GI50 (PC-3 prostate) [µM] | GI50 (A498 renal) [µM] | GI50 (HS 578T breast) [µM] | GI50 (LOX IMVI melanoma) [µM] | GI50 (NCI-H23 lung) [µM] | GI50 (IGROV1 ovarian) [µM] | GI50 (MCF7 breast) [µM] | GI50 (OVCAR-3 ovarian) [µM] | GI50 (K-562 leukemia) [µM] | GI50 (SNB-19 CNS) [µM] |
| --- | --- | --- | --- | --- | --- | --- | --- | --- | --- | --- | --- | --- | --- | --- | --- | --- | --- | --- | --- | --- |
| COc1ccccc1NC(=S)N=Nc1c(O)[nH]c2ccccc12 | > 100 | > 100 | > 100 | > 100 | > 100 | > 100 | > 100 | > 100 | > 100 | > 100 |  |  |  |  |  |  |  |  |  |  |
| CCOC(=O)/C=C(/C(=O)OCC)n1cc(C)c(=O)n(Cc2cnnn2COCCOC(C)=O)c1=O | 37.7 | 90 | 74 | 32 | 31.5 | 32.7 | 36 | 32.3 | 24.8 | > 100 |  |  |  |  |  |  |  |  |  |  |
| Cc1nn(C(=O)c2ccccc2O)c2c1C(c1ccc(O)cc1O)SC(N)=N2 (stereo not given) | > 10 | > 10 | 8.84 | > 10 | > 10 | > 10 | > 10 | > 10 | > 10 | > 10 |  |  |  |  |  |  |  |  |  |  |
| N[C@H]1c2c(Br)sc(Br)c2C(=O)[C@H]1O | > 75.1 | > 100 | > 87.8 | 10.6 | 17.5 | 32.8 | 34.8 | > 61.9 | 15.2 | 55.5 |  |  |  |  |  |  |  |  |  |  |
| COc1ccc2c(c1)N(Cc1ccc(Cl)cc1)CCC2N1CCCC1=O (stereo not given) | 38.7 | 49.7 | 26.5 | > 100 | 57.2 | > 100 | 25.5 | > 100 | > 100 | 51.7 | 3 | 3.22 | 2.76 | 3.54 | 4.37 | 3.51 | 3.5 | 4.42 | 4.6 | 4.3 |
| COC(=O)Nc1nc2ccc(S(=O)(=O)Nc3ccccn3)cc2[nH]1 | > 100 | > 100 | > 100 | > 100 | > 100 | > 100 | > 100 | > 100 | 75.9 | > 100 |  |  |  |  |  |  |  |  |  |  |
| O=C1/C(=C/c2ccc(O)cc2)CCCC1CN1CCCCC1 (stereo not given) | 10 | 20.4 | 11.5 | 3.09 | 11.8 | 3.8 | 6.49 | 14.9 | > 24.4 | 31.8 |  |  |  |  |  |  |  |  |  |  |
| C[C@@]1(CCCCCCCCCCc2ccccc2)C[C@@]2(C)OC(=O)C[C@H]2OO1 | 4.41 | 40.8 | 7.13 | 34.6 | 2.9 | 53.3 | 35 | 34.6 | 13.6 | 5.24 |  |  |  |  |  |  |  |  |  |  |
| O=c1[nH]c2ccccc2c(O)c1Cc1ccccc1 | > 100 | > 100 | > 100 | > 100 | > 100 | > 100 | > 100 | > 100 | > 100 | > 100 |  |  |  |  |  |  |  |  |  |  |
| COC(C/C(=C/CO[Si](C(C)C)(C(C)C)C(C)C)C(=O)N(C(=O)OC(C)(C)C)c1ccccc1I)OC | 77.4 | > 100 | > 100 | 49.8 | > 100 | 29.6 | 41.2 | > 100 | > 100 | > 100 |  |  |  |  |  |  |  |  |  |  |
| Cc1c(C(=O)O)n2c(=S)[nH]nc2c2ccccc12 | > 100 | > 100 | > 100 | > 100 | > 100 | > 100 | > 100 | > 100 | > 100 | > 100 |  |  |  |  |  |  |  |  |  |  |
| CCC(=O)Nc1cccc(N=Cc2ccc(OC(=O)/C=C\c3ccccc3)cc2)c1 | > 75 | > 75 | > 75 | > 75 | > 75 | > 75 | > 75 | > 75 | > 75 | > 75 |  |  |  |  |  |  |  |  |  |  |
| Nc1nc(Cl)cc(OCC2(CO)CCCC2)n1 | > 100 | > 100 | > 100 | > 100 | > 100 | > 100 | > 100 | > 100 | > 100 | > 100 |  |  |  |  |  |  |  |  |  |  |
| C/C=C1/CN2CCC34c5ccccc5N(C)C23C2CC1C4(C(=O)OC)C(OC(C)=O)O2 (stereo not given) | > 100 | > 100 | > 100 | > 100 | > 100 | > 100 | > 100 | > 100 | > 100 | > 100 |  |  |  |  |  |  |  |  |  |  |
| O=C(NC(=S)Nc1ccc([N+](=O)[O-])cc1)c1ccc2c(c1)Sc1ccccc1O2 | > 100 | > 100 | 79 | > 100 | > 100 | > 100 | > 100 | > 100 | > 100 | > 100 |  |  |  |  |  |  |  |  |  |  |
| Clc1ccc(CCNC2(c3cc4ccccc4s3)CCCCC2)cc1Cl | > 100 | 39.9 | > 100 | 35.6 | > 100 | > 100 | 33.5 | 49.2 | 36.7 | > 100 |  |  |  |  |  |  |  |  |  |  |

| Compound | TGI (PC-3 prostate) [µM] | TGI (A498 renal) [µM] | TGI (HS 578T breast) [µM] | TGI (LOX IMVI melanoma) [µM] | TGI (NCI-H23 lung) [µM] | TGI (IGROV1 ovarian) [µM] | TGI (MCF7 breast) [µM] | TGI (OVCAR-3 ovarian) [µM] | TGI (K-562 leukemia) [µM] | TGI (SNB-19 CNS) [µM] | GI50 (PC-3 prostate) [µM] | GI50 (A498 renal) [µM] | GI50 (HS 578T breast) [µM] | GI50 (LOX IMVI melanoma) [µM] | GI50 (NCI-H23 lung) [µM] | GI50 (IGROV1 ovarian) [µM] | GI50 (MCF7 breast) [µM] | GI50 (OVCAR-3 ovarian) [µM] | GI50 (K-562 leukemia) [µM] | GI50 (SNB-19 CNS) [µM] |
| --- | --- | --- | --- | --- | --- | --- | --- | --- | --- | --- | --- | --- | --- | --- | --- | --- | --- | --- | --- | --- |
| CSc1ncc2c(n1)-c1ccccc1OC2N1CCOCC1 (stereo not given) | > 100 | 56.7 | > 100 | > 100 | > 100 | > 100 | > 100 | > 100 | > 100 | > 100 |  |  |  |  |  |  |  |  |  |  |
| COC(=O)C(Cc1ccccc1)NC(=O)C(CS)NC(=O)OC(C)(C)C (stereo not drawn) (Boc-Cys-Phe-OMe; configuration not given here) | > 100 | > 100 | > 100 | > 100 | > 100 | > 100 | > 100 | > 100 | > 100 | > 100 |  |  |  |  |  |  |  |  |  |  |
| CC(C)C(Nc1ncnc2nc[nH]c12)C(=O)O (stereo not given) | > 100 | > 100 | > 100 | > 100 | > 100 | > 100 | > 100 | > 100 | > 100 | > 100 |  |  |  |  |  |  |  |  |  |  |
| O=C(CCBr)N1CCN(C(=O)CCBr)CC1 | 500 | 165 | 455 | 165 | 150 | 245 | 215 | 218 | 459 | 198 |  |  |  |  |  |  |  |  |  |  |
| c1coc(-c2nccc3c2[nH]c2ccccc23)c1 | > 100 | > 100 | > 100 | > 100 | > 100 | > 100 | > 100 | > 100 | > 100 | > 100 |  |  |  |  |  |  |  |  |  |  |
| COc1ccc2nc3c([N+](=O)[O-])ccc(NCCN(C)C)c3c(N)c2c1 | 2.81 | 4.31 | 4.5 | 1.08 | 3.73 | 2.74 | 1.1 | 3.31 | 0.607 | 3.98 |  |  |  |  |  |  |  |  |  |  |
| O=C1c2ccccc2C(=O)N1n1c(Cc2ccc(Cl)cc2)n[nH]c1=O | > 100 | > 100 | > 100 | > 100 | > 100 | > 100 | > 100 | > 100 | > 100 | > 100 |  |  |  |  |  |  |  |  |  |  |
| CC(C)(C)COC(=O)C(C)(C)NC(=O)C(CC(=O)OCc1ccccc1)NC(=O)OCc1ccccc1 (stereo not given) | > 100 | 79.5 | > 100 | > 100 | > 100 | > 100 | > 100 | > 100 | > 100 | 75.7 |  |  |  |  |  |  |  |  |  |  |
| Cc1cc2cc3cc(C)c(N)cc3nc2cc1N | 6.84 | 1.89 | 10.5 | 2.11 | 2.24 | 1.7 | 2.71 | 1.85 | 3.28 | 3.29 |  |  |  |  |  |  |  |  |  |  |
| Cn1cnc(N2CCCC2)c(C#N)c1=S | > 100 | > 100 | > 100 | > 100 | > 100 | > 100 | > 100 | > 100 | > 100 | > 100 |  |  |  |  |  |  |  |  |  |  |
| Cc1ccc(S(=O)(=O)N2CCC[C@@H]2C(=O)O[C@@H]2CCC3CC=CC32)cc1 (stereo not given in full) | 69.6 | 81.1 | 87.5 | 38.9 | > 100 | > 100 | > 100 | 38.8 | > 100 | > 100 |  |  |  |  |  |  |  |  |  |  |
| Nn1c(Nc2ccc(S(N)(=O)=O)cc2)nnc(/C=C/c2c(O)ccc3ccccc23)c1=O | > 100 | 73.6 | > 100 | 27.1 | 22.4 | 0.942 | 43 | 42.8 | 34.5 | > 100 |  |  |  |  |  |  |  |  |  |  |
| COC1=C[C@]2(CCC(=O)O2)[C@@H]2Cc3ccccc3[C@H](O)[C@@H]2C1=O | > 100 | > 100 | > 100 | 87.3 | > 100 | > 100 | > 100 | > 100 | > 100 | > 100 |  |  |  |  |  |  |  |  |  |  |
| COc1cc(C2c3cc4c(cc3OC(NNc3ccccc3)C2C)OCO4)cc(OC)c1OC (stereo not given) | > 56.3 | 6.76 | > 43.4 | > 37.8 | > 100 | > 100 | > 35.7 | 19.2 | > 32.1 | > 31 |  |  |  |  |  |  |  |  |  |  |
| Cn1c2ccc(F)cc2c2ccc3c(c21)C(=O)C=CC3=O | 19.3 | > 100 | > 86.5 | 22.8 | 31.4 | 39 | 16.5 | 19.6 | > 36.4 | > 100 |  |  |  |  |  |  |  |  |  |  |
| CN(C)Cc1c(O)ccc2c1c1c(n2C)C(=O)c2ccccc2C1=O | 32.7 | 14.7 | > 100 | 18.6 | 27.4 | 85.2 | > 100 | 48.4 | > 100 | > 100 |  |  |  |  |  |  |  |  |  |  |
